Values of other authors as cited in PMC12128972, “TYRA-300, an FGFR3-selective inhibitor, promotes bone growth in two FGFR3-driven models of chondrodysplasia” (JCI Insight, 2025).

Columns and labels:
[1] = test system: Fgfr3^Y367C/+ mouse model, which mimics the phenotype of ACH; design: method as in PMID 27064282, PMID 23200862; conditions: infigratinib 2 mg/kg, starting at 7 days of age for 10 days; cited from earlier work
[2] = test system: growth plate chondrocytes of Fgfr3^Y367C/+ mice; conditions: previous studies; cited from earlier work
[3] = test system: Fgfr3^G374R mouse model of ACH; conditions: treatment initiated 1 day after birth; cited from earlier work
[4] = test system: children with ACH; design: method as in earlier work; conditions: children with ACH aged 5-12 years, once daily s.c.; 95% CI 1.22-1.97; cited from earlier work

Row | Compound | bone growth compared with vosoritide (800 μg/kg) [1] | type X collagen staining in the HZCs [2] | premature fusion of the intersphenoidal synchondrosis [3] | increase from baseline of average linear growth velocity greater than placebo [4] [cm/year]
1 | CCN1CCN(c2ccc(Nc3cc(N(C)C(=O)Nc4c(Cl)c(OC)cc(OC)c4Cl)ncn3)cc2)CC1 [infigratinib] | more bone growth than vosoritide | partial restoration | did not rescue premature fusion | 
2 | vosoritide: C-natriuretic peptide (CNP) analog that is a once daily subcutaneous injection (PGQEHPNARKYKGANKKGLSKGCFGLKLDRIGSMSGLGC; chains of the INN, looked up) |  | partial restoration |  | 1.57
